# Data reported in patent US11078202B2, “β-lactamase inhibitor and use thereof” (priority 2018, dated 2021).
# Counter-ions that a name gives are not always drawn.
# How the values were obtained:
# Assay type in all cases: cell-based
# [1] = tested on: Klebsiella pneumoniae XNWB 0001; experiment: MIC assay of test compounds combined with imipenem (4 μg/mL); settings: imipenem 4 μg/mL fixed
# Procedure, shortened: (§1)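 Strains were revived from −80 °C stocks on TSA, subcultured, and single colonies were resuspended in saline to OD600 0.1-0.15. After a 300-fold dilution in 1.1×CAMHB, cells were combined with diluted compound and a fixed antibiotic. Growth was assessed after 16-20 h at 35±2 °C.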
# [2] = tested on: Klebsiella pneumoniae XNWB 0005; experiment: as above; settings: imipenem 4 μg/mL fixed
# Procedure, shortened: as §1
# [3] = tested on: Pseudomonas aeruginosa XNWB 0008; experiment: as above; settings: imipenem 4 μg/mL fixed
# Procedure, shortened: as §1
# [4] = tested on: Klebsiella pneumoniae XNWB 0002; experiment: as above; settings: imipenem 4 μg/mL fixed
# Procedure, shortened: as §1
# [5] = tested on: Klebsiella pneumoniae XNWB 0004; experiment: as above; settings: imipenem 4 μg/mL fixed
# Procedure, shortened: as §1
# [6] = tested on: Acinetobacter baumannii XNWB 0007; experiment: as above; settings: imipenem 4 μg/mL fixed
# Procedure, shortened: as §1
# [7] = tested on: Klebsiella pneumoniae XNWB 0003; experiment: as above; settings: imipenem 4 μg/mL fixed
# Procedure, shortened: as §1
# [8] = tested on: Klebsiella pneumoniae XNWB 0006; experiment: as above; settings: imipenem 4 μg/mL fixed
# Procedure, shortened: as §1
# [9] = tested on: Klebsiella pneumoniae XNWB 0001; experiment: MIC assay of test compounds combined with ceftazidime (8 μg/mL); settings: ceftazidime 8 μg/mL fixed
# Procedure, shortened: as §1
# [10] = tested on: Klebsiella pneumoniae XNWB 0005; experiment: as above; settings: ceftazidime 8 μg/mL fixed
# Procedure, shortened: as §1
# [11] = tested on: Pseudomonas aeruginosa XNWB 0008; experiment: as above; settings: ceftazidime 8 μg/mL fixed
# Procedure, shortened: as §1
# [12] = tested on: Klebsiella pneumoniae XNWB 0002; experiment: as above; settings: ceftazidime 8 μg/mL fixed
# Procedure, shortened: as §1
# [13] = tested on: Klebsiella pneumoniae XNWB 0004; experiment: as above; settings: ceftazidime 8 μg/mL fixed
# Procedure, shortened: as §1
# [14] = tested on: Acinetobacter baumannii XNWB 0007; experiment: as above; settings: ceftazidime 8 μg/mL fixed
# Procedure, shortened: as §1
# [15] = tested on: Klebsiella pneumoniae XNWB 0003; experiment: as above; settings: ceftazidime 8 μg/mL fixed
# Procedure, shortened: as §1
# [16] = tested on: Klebsiella pneumoniae XNWB 0006; experiment: as above; settings: ceftazidime 8 μg/mL fixed
# Procedure, shortened: as §1
SMILES,The minimum concentration of test compounds combined with imipenem (4 μg/mL) for bacteriostasis [1],The minimum concentration of test compounds combined with imipenem (4 μg/mL) for bacteriostasis [2],The minimum concentration of test compounds combined with imipenem (4 μg/mL) for bacteriostasis [3],The minimum concentration of test compounds combined with imipenem (4 μg/mL) for bacteriostasis [4],The minimum concentration of test compounds combined with imipenem (4 μg/mL) for bacteriostasis [5],The minimum concentration of test compounds combined with imipenem (4 μg/mL) for bacteriostasis [6],The minimum concentration of test compounds combined with imipenem (4 μg/mL) for bacteriostasis [7],The minimum concentration of test compounds combined with imipenem (4 μg/mL) for bacteriostasis [8],The minimum concentration of test compounds combined with ceftazidime (8 μg/mL) for bacteriostasis [9],The minimum concentration of test compounds combined with ceftazidime (8 μg/mL) for bacteriostasis [10],The minimum concentration of test compounds combined with ceftazidime (8 μg/mL) for bacteriostasis [11],The minimum concentration of test compounds combined with ceftazidime (8 μg/mL) for bacteriostasis [12],The minimum concentration of test compounds combined with ceftazidime (8 μg/mL) for bacteriostasis [13],The minimum concentration of test compounds combined with ceftazidime (8 μg/mL) for bacteriostasis [14],The minimum concentration of test compounds combined with ceftazidime (8 μg/mL) for bacteriostasis [15],The minimum concentration of test compounds combined with ceftazidime (8 μg/mL) for bacteriostasis [16]
"NCCCc1nnc([C@@H]2CC3(CC3)[C@@H]3CN2C(=O)N3OS(=O)(=O)O)o1 [Example 6, sodium (1R,4S)-4-(5-(3-aminopropyl)-1,3,4-oxadiazol-2-yl)-6-oxo-5,7-diazaspiro [bicycle[3.2.1]octane-2,1′-cyclopropan]-7-yl sulfate]",A (A: <8 μg/mL),A (A: <8 μg/mL),B (B: 8-16 μg/mL),A (A: <8 μg/mL),A (A: <8 μg/mL),B (B: 8-16 μg/mL),A (A: <8 μg/mL),A (A: <8 μg/mL),A (A: <8 μg/mL),B (B: 8-16 μg/mL),C (C: 16-128 μg/mL),A (A: <8 μg/mL),B (B: 8-16 μg/mL),C (C: 16-128 μg/mL),B (B: 8-16 μg/mL),A (A: <8 μg/mL)
"N[C@H]1CC[C@@H](c2nnc([C@@H]3CC4(CC4)[C@@H]4CN3C(=O)N4OS(=O)(=O)O)o2)C1 [Example 17, (1R,4S)-4-(5-((1R,3S)-3-aminocyclopentyl)-1,3,4-oxadiazol-2-yl)-6-oxo-5,7-diazaspiro [bicyclo[3.2.1]octane-2,1′-cyclopropan]-7-yl sulfate]",A (A: <8 μg/mL),A (A: <8 μg/mL),A (A: <8 μg/mL),A (A: <8 μg/mL),A (A: <8 μg/mL),B (B: 8-16 μg/mL),A (A: <8 μg/mL),A (A: <8 μg/mL),A (A: <8 μg/mL),A (A: <8 μg/mL),B (B: 8-16 μg/mL),A (A: <8 μg/mL),A (A: <8 μg/mL),C (C: 16-128 μg/mL),A (A: <8 μg/mL),A (A: <8 μg/mL)
"N=C1NC[C@@H](c2nnc([C@@H]3CC4(CC4)[C@@H]4CN3C(=O)N4OS(=O)(=O)O)o2)N1 [Example 55, (1R,4S)-4-(5-((S)-2-iminoimidazolidin-4-yl)-1,3,4-oxadiazol-2-yl)-6-oxo-5,7-diazaspiro [bicyclo[3.2.1]octane-2,1′-cyclopropan]-7-yl sulfate]",A (A: <8 μg/mL),A (A: <8 μg/mL),A (A: <8 μg/mL),A (A: <8 μg/mL),A (A: <8 μg/mL),A (A: <8 μg/mL),A (A: <8 μg/mL),A (A: <8 μg/mL),A (A: <8 μg/mL),A (A: <8 μg/mL),B (B: 8-16 μg/mL),A (A: <8 μg/mL),A (A: <8 μg/mL),C (C: 16-128 μg/mL),A (A: <8 μg/mL),A (A: <8 μg/mL)
"N=C(N)N1CCC(NCCc2cc([C@@H]3CC4(CC4)[C@@H]4CN3C(=O)N4OS(=O)(=O)O)no2)CC1 [Example 47, (1R,4S)-4-(5-(2-((1-amidinopiperidin-4-yl)amino)ethyl)isoxazol-3-yl)-6-oxo-5,7-diazaspiro[bicyclo[3.2.1]octane-2,1′-cyclopropan]-7-yl sulfate]",A (A: <8 μg/mL),A (A: <8 μg/mL),A (A: <8 μg/mL),A (A: <8 μg/mL),A (A: <8 μg/mL),C (C: 16-128 μg/mL),A (A: <8 μg/mL),A (A: <8 μg/mL),B (B: 8-16 μg/mL),C (C: 16-128 μg/mL),C (C: 16-128 μg/mL),A (A: <8 μg/mL),C (C: 16-128 μg/mL),C (C: 16-128 μg/mL),C (C: 16-128 μg/mL),B (B: 8-16 μg/mL)
N[C@H]1C[C@H](c2nnc([C@@H]3CC4(CC4)[C@@H]4CN3C(=O)N4OS(=O)(=O)O)o2)C1 [Example 16],A (A: <8 μg/mL),A (A: <8 μg/mL),A (A: <8 μg/mL),A (A: <8 μg/mL),A (A: <8 μg/mL),B (B: 8-16 μg/mL),A (A: <8 μg/mL),A (A: <8 μg/mL),A (A: <8 μg/mL),A (A: <8 μg/mL),B (B: 8-16 μg/mL),A (A: <8 μg/mL),B (B: 8-16 μg/mL),C (C: 16-128 μg/mL),A (A: <8 μg/mL),A (A: <8 μg/mL)
